Measurements reported in ChEMBL document CHEMBL2401618 (Eur J Med Chem, 2013).

What was measured:
[1] = Safety index, ratio of IC50 for african green monkey Vero cells to IC50 for promastigote stage of Leishmania donovani LV9; format: toxicity, cell-based; conditions: read-out: Ratio IC50
Vero = assay: Cytotoxicity against african green monkey Vero cells assessed as growth inhibition after 72 hrs by MTS assay; format: cell-based; conditions: Chlorocebus sabaeus
Leishmania donovani = assay: Leishmanicidal activity against promastigote stage of Leishmania donovani LV9 assessed as cell viability by MTT assay; format: functional, organism-based
Plasmodium falciparum [2] = assay: Antiplasmodial activity against chloroquine-resistant Plasmodium falciparum FcB1/Columbia infected in human erythrocytes assessed as parasite growth inhibition at 1 ug/ml after 24 hrs by [3H]-hypoxanthine incorporation assay relative to control; format: functional; conditions: read-out: GI
Plasmodium falciparum [3] = assay: Antiplasmodial activity against chloroquine-resistant Plasmodium falciparum FcB1/Columbia infected in human erythrocytes assessed as parasite growth inhibition at 10 ug/ml after 24 hrs by [3H]-hypoxanthine incorporation assay relative to control; format: functional; conditions: read-out: GI
[4] = test system: Trypanosoma brucei brucei; assay: Antitrypanosomal activity against bloodstream stage of Trypanosoma brucei brucei 93 assessed as parasite growth inhibition at 1 ug/ml after 72 hrs by resazurin reduction assay relative to control; format: functional; conditions: Trypanosoma brucei, 93, 72 h; read-out: GI
[5] = test system: Trypanosoma brucei brucei; assay: Antitrypanosomal activity against bloodstream stage of Trypanosoma brucei brucei 93 assessed as parasite growth inhibition at 10 ug/ml after 72 hrs by resazurin reduction assay relative to control; format: functional; conditions: Trypanosoma brucei, 93, 72 h; read-out: GI
[6] = test system: Trypanosoma brucei brucei; assay: Antitrypanosomal activity against bloodstream stage of Trypanosoma brucei brucei 93 assessed as parasite growth inhibition at 50 ug/ml after 72 hrs by resazurin reduction assay relative to control; format: functional; conditions: Trypanosoma brucei, 93, 72 h; read-out: GI
Plasmodium falciparum [7] = assay: Antiplasmodial activity against chloroquine-resistant Plasmodium falciparum FcB1/Columbia infected in human erythrocytes assessed as parasite growth inhibition at 50 ug/ml after 24 hrs by [3H]-hypoxanthine incorporation assay relative to control; format: functional; conditions: read-out: GI
[8] = Safety index, ratio of IC50 for african green monkey Vero cells to IC50 for bloodstream stage of Trypanosoma brucei brucei 93; format: toxicity, cell-based; conditions: read-out: Ratio IC50
[9] = test system: Trypanosoma brucei brucei; assay: Antitrypanosomal activity against bloodstream stage of Trypanosoma brucei brucei 93 assessed as parasite growth inhibition after 72 hrs by resazurin reduction assay; format: functional, organism-based; conditions: Trypanosoma brucei, 93, 72 h
[10] = Safety index, ratio of IC50 for african green monkey Vero cells to IC50 for chloroquine-resistant Plasmodium falciparum FcB1/Columbia infected in human erythrocytes; format: toxicity, cell-based; conditions: read-out: Ratio IC50
Plasmodium falciparum [11] = assay: Antiplasmodial activity against chloroquine-resistant Plasmodium falciparum FcB1/Columbia infected in human erythrocytes assessed as parasite growth inhibition after 24 hrs by [3H]-hypoxanthine incorporation assay; format: functional, organism-based

Compound | selectivity ratio [1] | IC50 (Vero) | IC50 (Leishmania donovani) | inhibition of growth at 1 µg/mL (Plasmodium falciparum [2]) | inhibition of growth at 10 µg/mL (Plasmodium falciparum [3]) | inhibition of growth at 1 µg/mL [4] | inhibition of growth at 10 µg/mL [5] | inhibition of growth at 50 µg/mL [6] | inhibition of growth at 50 µg/mL (Plasmodium falciparum [7]) | selectivity ratio [8] | IC50 [9] | selectivity ratio [10] | IC50 (Plasmodium falciparum [11])
COc1ccc(C(=O)C2=C(O)[C@]3(CC=C(C)C)C[C@H](CC=C(C)C)[C@@](C)(CCC=C(C)C)[C@](CC=C(C)C)(C2=O)C3=O)cc1OC | 1.8 | 21.8 µM | 12.2 µM | 13.8% | 59.2% | 17.7% | 96.3% | 94% | 99.3% |  |  |  | 
COCOc1ccc(C(=O)C2=C(O)[C@]3(CC=C(C)C)C[C@H](CC=C(C)C)[C@@](C)(CCC=C(C)C)[C@](CC=C(C)C)(C2=O)C3=O)cc1OCOC |  |  | 23.3 µM | 7.94% | 20.9% | 6.82% | 95.5% | 93.2% | 99.5% |  |  |  | 
CC(C)=CCC[C@]1(C)[C@@H](CC=C(C)C)C[C@]2(CC=C(C)C)C(=O)[C@@]1(CC=C(C)C)C(=O)C(C(=O)c1ccc(OCc3ccccc3)c(OCc3ccccc3)c1)=C2O | < 0.3 | 32.6 µM | > 100 µM | 7.07% | 38.6% | 32.8% | 94.8% | 94.9% | 99.1% | 10.1 | 3.23 µM |  | 
COc1ccc([N+](=O)[O-])cc1COc1ccc(C(=O)C2=C(O)[C@]3(CC=C(C)C)C[C@H](CC=C(C)C)[C@@](C)(CCC=C(C)C)[C@](CC=C(C)C)(C2=O)C3=O)cc1OCc1cc([N+](=O)[O-])ccc1OC |  |  | > 100 µM | 13.7% | 20.1% | 9.11% | 51.9% | 93% | 79.1% |  |  |  | 
CC(=O)Oc1cc(C(=O)C2=C(O)[C@]3(CC=C(C)C)C[C@H](CC=C(C)C)[C@@](C)(CCC=C(C)C)[C@](CC=C(C)C)(C2=O)C3=O)ccc1O | 0.8 | 4.12 µM | 5.04 µM | 9% | 96.7% | 47% | 97.3% | 95.5% | 99.1% | 2.3 | 1.78 µM | 0.9 | 4.36 µM
CC(=O)Oc1ccc(C(=O)C2=C(O)[C@]3(CC=C(C)C)C[C@H](CC=C(C)C)[C@@](C)(CCC=C(C)C)[C@](CC=C(C)C)(C2=O)C3=O)cc1OC(C)=O |  | 3.77 µM |  | 14.9% | 97.5% | 38.5% | 97.2% | 93.3% | 99.7% | 1.3 | 2.95 µM | 1.1 | 3.63 µM
CCCC(=O)Oc1ccc(C(=O)C2=C(O)[C@]3(CC=C(C)C)C[C@H](CC=C(C)C)[C@@](C)(CCC=C(C)C)[C@](CC=C(C)C)(C2=O)C3=O)cc1OC(=O)CCC | 0.6 | 7.9 µM | 13.3 µM | -0.82% | 96.5% | 35% | 96.2% | 94.9% | 99.7% | 3 | 2.65 µM | 1.6 | 5.06 µM
CC(C)=CCC[C@]1(C)[C@@H](CC=C(C)C)C[C@]2(CC=C(C)C)C(=O)[C@@]1(CC=C(C)C)C(=O)C(C(=O)c1ccc(OC(=O)C=C(C)C)c(OC(=O)C=C(C)C)c1)=C2O |  |  | 28.9 µM | 3.6% | 31.6% | 10.5% | 92% | 96.1% | 94.9% |  |  |  | 
CC(C)=CCC[C@]1(C)[C@@H](CC=C(C)C)C[C@]2(CC=C(C)C)C(=O)[C@@]1(CC=C(C)C)C(=O)C(C(=O)c1ccc(OCCC3OCCO3)c(O)c1)=C2O [14-O-2-ETHYL-1,3-DIOXOLANE-GUTTIFERONE A] |  |  | 22.2 µM | 15.3% | 49.1% | 8.18% | 96.4% | 94.9% | 99.6% |  |  |  | 
COc1ccc([N+](=O)[O-])cc1COc1ccc(C(=O)C2=C(O)[C@]3(CC=C(C)C)C[C@H](CC=C(C)C)[C@@](C)(CCC=C(C)C)[C@](CC=C(C)C)(C2=O)C3=O)cc1O [14-O-2-METHOXY-5-NITROBENZYL-GUTTIFERONE A] |  |  | > 100 µM | 6.06% | 14.6% | 8.4% | 88.9% | 96.1% | 97.4% |  |  |  | 
C=CCOc1ccc(C(=O)C2=C(O)[C@]3(CC=C(C)C)C[C@H](CC=C(C)C)[C@@](C)(CCC=C(C)C)[C@](CC=C(C)C)(C2=O)C3=O)cc1O [14-O-ALLYL-GUTTIFERONE A] |  |  | 15.7 µM | 0.83% | 11% | 20.3% | 95.1% | 92.6% | 99.5% |  |  |  | 
CC(C)=CCC[C@]1(C)[C@@H](CC=C(C)C)C[C@]2(CC=C(C)C)C(=O)[C@@]1(CC=C(C)C)C(=O)C(C(=O)c1ccc(OCc3ccccc3)c(O)c1)=C2O [14-O-BENZYL-GUTTIFERONE A] |  |  | 22.4 µM | 16.1% | 49% | 23.6% | 96% | 95% | 99.1% |  |  |  | 
CCOc1ccc(C(=O)C2=C(O)[C@]3(CC=C(C)C)C[C@H](CC=C(C)C)[C@@](C)(CCC=C(C)C)[C@](CC=C(C)C)(C2=O)C3=O)cc1O [14-O-ETHYL-GUTTIFERONE A] |  |  | 16.2 µM | 14.9% | 28.2% | 15.8% | 94.7% | 93% | 99.7% |  |  |  | 
CC(C)=CCC[C@]1(C)[C@@H](CC=C(C)C)C[C@]2(CC=C(C)C)C(=O)[C@@]1(CC=C(C)C)C(=O)C(C(=O)c1ccc(OC(C)C)c(O)c1)=C2O [14-O-ISOPROPYL-GUTTIFERONE A] |  |  | 18 µM | 14.7% | 25.6% | 15.4% | 95.7% | 94.4% | 99.8% |  |  |  | 
COCOc1ccc(C(=O)C2=C(O)[C@]3(CC=C(C)C)C[C@H](CC=C(C)C)[C@@](C)(CCC=C(C)C)[C@](CC=C(C)C)(C2=O)C3=O)cc1O [14-O-METHOXYMETHYL-GUTTIFERONE A] | 0.9 | 13 µM | 14.6 µM | 10.8% | 74.8% | 13.2% | 96.3% | 92.5% | 99.6% |  |  | 2.7 | 4.84 µM
C#CCOc1ccc(C(=O)C2=C(O)[C@]3(CC=C(C)C)C[C@H](CC=C(C)C)[C@@](C)(CCC=C(C)C)[C@](CC=C(C)C)(C2=O)C3=O)cc1O [14-O-PROPARGYL-GUTTIFERONE A] |  |  | 18 µM | 6.95% | 49.4% | 20.9% | 96% | 92.1% | 99.5% |  |  |  | 
CCCOc1ccc(C(=O)C2=C(O)[C@]3(CC=C(C)C)C[C@H](CC=C(C)C)[C@@](C)(CCC=C(C)C)[C@](CC=C(C)C)(C2=O)C3=O)cc1O [14-O-PROPYL-GUTTIFERONE A] |  |  | 20.7 µM | 2.36% | 13.4% | 5.33% | 94.6% | 94.2% | 99.6% |  |  |  | 
C[C@@H]1[C@H](O)[C@@H](C)/C=C/C=C/C=C/C=C/C=C/C=C/C=C/[C@H](O[C@@H]2O[C@H](C)[C@@H](O)[C@H](N)[C@@H]2O)C[C@@H]2O[C@](O)(C[C@@H](O)C[C@@H](O)[C@H](O)CC[C@@H](O)C[C@@H](O)CC(=O)O[C@H]1C)C[C@H](O)[C@H]2C(=O)O [AMPHOTERICIN B] | 11 | 0.33 µM | 0.03 µM |  |  |  |  |  |  |  |  |  | 
CCN(CC)CCCC(C)Nc1ccnc2cc(Cl)ccc12 (configuration not stated) [CHLOROQUINE] |  | 21 µM |  |  |  |  |  |  |  |  |  |  | 
CCCCCCCCCCCCCCCCOP(=O)([O-])OCC[N+](C)(C)C [MILTEFOSINE] | 4 | 65 µM | 16.2 µM |  |  |  |  |  |  |  |  |  | 
